Structures can show the parent of a compound that is named as a salt. Where two headings read alike, the source gives them in different places.
Key:
[1] = target: T1, Human vitronectin receptor (αv β3) (Homo sapiens, UniProt P05106+P06756); test: Vitronectin adhesion assay (solid phase receptor assay, competition with biotinylated vitronectin); format: binding
T1 construct: Human vitronectin receptor(αv β3) was purified from human placenta; from tissue; host or cells: human placenta
Description: Human vitronectin receptor(αv β3) was purified from human placenta as previously described [Pytela et al., Methods in Enzymology, 144:475-489 (1987)]. Human vitronectin was purified from fresh frozen plasma as previously described [Yatohgo et al., Cell Structure and Function, 13:281-292 (1988)]. Biotinylated human vitronectin was prepared by coupling NHS-biotin from Pierce Chemical Company (Rockford, Ill.) to purified vitronectin as previously described [Charo et al., J. Biol. Chem., 266(3):1415-1421 (1991)]. Assay buffer, OPD substrate tablets, and RIA grade BSA were obtained from Sigma (St. Louis, Mo.). Anti-biotin antibody was obtained from Calbiochem (La Jolla, Calif.). Linbro microtiter plates were obtained from Flow Labs (McLean, Va.). ADP reagent was obtained from Sigma (St. Louis, Mo.). This assay was essentially the same as previously reported [Niiya et al., Blood, 70:475-483 (1987)]. The purified human vitronectin receptor (αv β3) was diluted from stock solutions to 1.0 μg/mL in Tris-buffered saline containing 1.0 mM Ca^++, Mg^++, and Mn^++, pH 7.4 (TBS^+++). The diluted receptor was immediately transferred to Linbro microtiter plates at 100 μL/well (100 ng receptor/well). The plates were sealed and incubated overnight at 4° C. to allow the receptor to bind to the wells. All remaining steps were at room temperature. The assay plates were emptied and 200 μL of 1% RIA grade BSA in TBS^+++ (TBS^+++ /BSA) were added to block exposed plastic surfaces. Following a 2 hour incubation, the assay plates were washed with TBS^+++ using a 96 well plate washer. Logarithmic serial dilution of the test compound and controls were made starting at a stock concentration of 2 mM and using 2 nM biotinylated vitronectin in TBS^+++ /BSA as the diluent. This premixing of labeled ligand with test (or control) ligand, and subsequent transfer of 50 μL aliquots to the assay plate was carried out with a CETUS Propette robot; the final concentration of the labeled ligand was 1 nM and the highest concentration of test compound was 1.0×10^-4 M. The competition occurred for two hours after which all wells were washed with a plate washer as before. Affinity purified horseradish peroxidase labeled goat anti-biotin antibody was diluted 1:3000 in TBS^+++ /BSA and 125 μL were added to each well. After 30 minutes, the plates were washed and incubated with OPD/H2 O2 substrate in 100 mM/L Citrate buffer, pH 5.0. The plate was read with a microtiter plate reader at a wavelength of 450 nm and when the maximum-binding control wells reached an absorbance of about 1.0, the final A450 were recorded for analysis. The data were analyzed using a macro written for use with the EXCEL™ spreadsheet program. The mean, standard deviation, and %CV were determined for duplicate concentrations. The mean A450 values were normalized to the mean of four maximum-binding controls (no competitor added) (B-MAX). The normalized values were subjected to a four parameter curve fit algorithm [Rodbard et al., Int.

[2] = target: T2, Human fibrinogen receptor (αIIb β3) (Homo sapiens, UniProt P05106+P08514); test: Purified IIb/IIIa receptor assay (solid phase receptor assay, competition with biotinylated vitronectin); settings: inhibition of 50% of maximum binding of 1 nM biotinylated vitronectin; 2 h competition, room temperature, TBS+++ pH 7.4
T2 construct: Human fibrinogen receptor (αIIb β3) was purified from outdated platelets; from tissue; host or cells: outdated platelets (human)
Text: Human fibrinogen receptor (αIIb β3) was purified from outdated platelets. (Pytela, R., Pierschbacher, […]., Suzuki, S., and […] acid adhesion receptors", Methods in Enzymology 144(1987):475-489.) Human vitronectin was purified from fresh frozen plasma as described in Yatohgo, T., Izumi, M., Kashiwagi, H., and Hayashi, M., "Novel purification of vitronectin from human plasma by heparin affinity chromatography," Cell Structure and Function 13(1988):281-292. Biotinylated human vitronectin was prepared by coupling NHS-biotin from Pierce Chemical Company (Rockford, Ill.) to purified vitronectin as previously described. (Charo, […]., Phillips, D. R., Hsu, M. A., Scarborough, R. M., "Inhibition of fibrinogen binding to GP IIb/IIIa by a GP IIIa peptide", J. Biol. Chem. 266(3) (1991): 1415-1421.) Assay buffer, OPD substrate tablets, and RIA grade BSA were obtained from Sigma (St. Louis, Mo.). Anti-biotin antibody was obtained from Calbiochem (La Jolla, Calif.). Linbro microtiter plates were obtained from Flow Labs (McLean, Va.). ADP reagent was obtained from Sigma (St. Louis, Mo.). This assay is essentially the same reported in […]., Bader, R., Byers-Ward, […]., Plow, E. F. and Ruggeri, Z. M., "Increased surface expression of the membrane glycoprotein IIb/IIIa complex induced by platelet activation: Relationships to the binding of fibrinogen and platelet aggregation", Blood 70(1987):475-483. The purified human fibrinogen receptor (αIIb β3) was diluted from stock solutions to 1.0 μg/mL in Tris-buffered saline containing 1.0 mM Ca^++, Mg^++, and Mn^++, pH 7.4 (TBS^+++). The diluted receptor was immediately transferred to Linbro microtiter plates at 100 μL/well (100 ng receptor/well). The plates were sealed and incubated overnight at 4° C. to allow the receptor to bind to the wells. All remaining steps were at room temperature. The assay plates were emptied and 200 μL of 1% RIA grade BSA in TBS^+++ (TBS^+++ /BSA) were added to block exposed plastic surfaces. Following a 2 hour incubation, the assay plates were washed with TBS^+++ using a 96 well plate washer. Logarithmic serial dilution of the test compound and controls were made starting at a stock concentration of 2 mM and using 2 nM biotinylated vitronectin in TBS^+++ /BSA as the diluent. This premixing of labeled ligand with test (or control) ligand, and subsequent transfer of 50 μL aliquots to the assay plate was carried out with a CETUS Propette robot; the final concentration of the labeled ligand was 1 nM and the highest concentration of test compound was 1.0×10^-4 M. The competition occurred for two hours after which all wells were washed with a plate washer as before. Affinity purified horseradish peroxidase labeled goat anti-biotin antibody was diluted 1:3000 in TBS^+++ /BSA and 125 μL were added to each well. After 30 minutes, the plates were washed and incubated with […]/H2 O2 substrate in 100 mM/L citrate buffer, pH 5.0. The plate was read with a microtiter plate reader at a wavelength of 450 nm and when the maximum-binding control wells reached an absorbance of about 1.0, the final A450 were recorded for analysis. The data were analyzed using a macro written for use with the EXCELTM spreadsheet program. The mean, standard deviation, and %CV were determined for duplicate concentrations. The mean A450 values were normalized to the mean of four maximum-binding controls (no competitor added) (B-MAX). The normalized values were subjected to a four parameter curve fit algorithm, [Robard et al., Int.

[3] = inhibition of 50% of maximum binding of 1 nM biotinylated vitronectin, 2 h competition, room temperature, TBS+++ pH 7.4, read-out: AVB3 IC50

| Compound | IC50 ([1]; positive control included on each plate, stated range, read-out: αv β3 antagonist IC50 (positive control)) | IC50 [1, 3] | IC50 [2] |
| --- | --- | --- | --- |
| N=C(N)NCCCCC(=O)NCC(=O)NC(CC(=O)O)c1cccnc1 (stereo not drawn) [β-[[2-[[5-[(aminoiminomethyl)amino]-1-oxopentyl]amino]-1-oxoethyl]amino]-3-pyridinepropanoic acid, reference compound] | 3 to 10 nM |  |  |
| 2-[3-[[[[3-[(aminoiminomethyl)amino]phenyl]carbonyl]amino]methyl]phenyl]cyclopropanecarboxylic acid, trifluoroacetate salt [Example 3] |  | 923 nM | 5280 nM |
| N=C(N)Nc1cc(C(=O)Nc2ccc(C3CC3C(=O)O)cc2)cc(C(F)(F)F)c1 (stereo not drawn) [Example 6, 2-[4-[[[3-[(aminoiminomethyl)amino]-5-(trifluoromethyl)phenyl]carbonyl]amino]phenyl]cyclopropanecarboxylic acid, trifluoroacetate salt] |  | 122 nM | 9700 nM |
| O=C(Nc1ccc(C2CC2C(=O)O)cc1)c1cccc(NC2=NCCCN2)c1 (stereo not drawn) [Example 7, 2-[4-[[[3-[(1,4,5,6-tetrahydropyrimidin-2-yl)amino]phenyl]carbonyl]amino]phenyl]cyclopropanecarboxylic acid, trifluoroacetate salt] |  | 19 nM | 4800 nM |
| N=C(N)Nc1cccc(C(=O)Nc2ccc(C3CC3C(=O)O)cc2)c1 (stereo not drawn) [Example 2, 2-[4-[[[3-[(aminoiminomethyl)amino]phenyl]carbonyl]amino]phenyl]cyclopropanecarboxylic acid, trifluoroacetate salt] |  | 30.5 nM | 533 nM |
| NC(=O)N=C(N)Nc1cccc(C(=O)Nc2ccc(C3CC3C(=O)O)cc2)c1 (stereo not drawn) [Example 8, 2-[4-[[[3-[(amino[(aminocarbonyl)imino]methyl]amino]phenyl]carbonyl]amino]phenyl]cyclopropanecarboxylic acid, trifluoroacetate salt] |  | 1380 nM | 13100 nM |
| COc1cc(NC(=O)c2cccc(NC(=N)N)c2)ccc1C1CC1C(=O)O (stereo not drawn) [Example 5, 2-[4-[[[3-[(aminoiminomethyl)amino]phenyl]carbonyl]amino]-2-methoxyphenyl]cyclopropanecarboxylic acid, trifluoroacetate salt] |  | 81.1 nM | 2890 nM |
| CCOC(=O)C1CC1c1ccc(NC(=O)c2cccc(NC(=N)N)c2)cc1 (stereo not drawn) [Example 1, ethyl 2-[4-[[[3-[(aminoiminomethyl)amino]phenyl]carbonyl]amino]phenyl]cyclopropanecarboxylate, monohydrate trifluoroacetate salt] |  | 525 nM | 3650 nM |
